Laboratory results from patent US12404294B2, “Glycolipopeptide biosurfactants” (Croda International Plc, priority 2016, dated 2025).
Converted amounts (≈) assume the structure as drawn.

How the values were obtained:
[1] = Aqueous solubility (remark); format: physicochemical; conditions: in words
[2] = system: BJ fibroblast cells ATCC CRL-2522; experiment: Cytotoxicity testing, alamarBlue, BJ fibroblasts; format: cell-based, human; conditions: 24 h treatment; for BJ (MIC90): 90% of growth inhibition; for IC50: Homo sapiens, Fibroblast
Protocol: (§1) To evaluate the safety profile of the glycolipopeptides, cytotoxicity testing was conducted against two normal human cell lines, BJ fibroblast cells ATCC CRL-2522 and adult epidermal keratinocytes (HEKa; Life Technologies, Carlsbad, CA, USA). […] Life Technologies, Carlsbad, CA, USA) and 50 μg/mL gentamicin (Sigma-Aldrich, St. Louis, MO, USA). Cells were cultured in […]^2 cell culture flasks and incubated at 37° C. in a humidified atmosphere of 5% CO2. For BJ fibroblasts culture media was refreshed every two to three days and cells were not allowed to exceed 80% confluence. […] At 80% confluence, the cells were counted, diluted to 10,000 cells/well in growth medium lacking antibiotics and 90 μL of cell suspension was transferred into the wells of 96-well treated cell culture plates. The plates were incubated as before to allow cells to adhere to the plates for 24 h before treatment. DMSO was used as the vehicle at a final concentration of 1%. […] The fibroblasts and HEKa cells were incubated as previously described for 24 h. All samples were tested in triplicate. […] AlamarBlue (Life Technologies, Carlsbad, CA, USA) was added to each well 24 h after treatment (10% v/v). Fluorescence (560/12 excitation, 590 nm emission) was monitored using a Varioskan Flash Multimode plate reader both at time zero and 4 h after the addition of alamarBlue. After subtraction of fluorescence at time zero from 4 h readings the percentage of cell viability relative to vehicle control wells was calculated.

[3] = system: adult epidermal keratinocytes (HEKa); experiment: Cytotoxicity testing, alamarBlue, HEKa cells; format: cell-based, human; conditions: 24 h treatment; for HEKa (MIC90): 90% of growth inhibition; for IC50: Homo sapiens, HEKa
Protocol: as §1

[4] = Critical micelle concentration and surface tension of water, Du Nouy method (Kibron Delta-8 microtensiometer); format: physicochemical; conditions: for CMC: degassed deionized water, 24-25° C.; for Minimum Surface Tension: surface tension of water at CMC (water 72 mN/m)
Protocol: As summarized in Table 1, the critical micelle concentrations (CMCs) of NB-RLP1006, NB-RLP978, NB-RLP860, and NB-RLP-1048B were determined by the Du Nouy method utilizing a Kibron Delta-8 multichannel microtensiometer (Kibron Inc., Helsinki, Finland). All samples were prepared in degassed deionized water (Millipore, Etobicoke, ON, CA) at concentrations ranging from 0 to 2.0 mM. All measurements were recorded between 24 and 25° C. and performed in duplicate. The critical micelle concentration of both NB-RLP1006 and NB-RLP978 was 0.20 mM (0.02 wt %). […] The surface activity of NB-RLP1006 was compared to rhamnolipids A and B, which were purified from a commercially available rhamnolipid mixture (R90; AGAE Technologies, Corvallis, OR, USA) by reversed-phase HPLC.

[5] = Drop dilution test for type of emulsion; format: physicochemical; conditions: 1 mg/mL in deionized water with equal volume of kerosene
Protocol: (§2) The emulsifying properties of NB-RLP1006 were determined using the emulsification index as described above. […] The emulsification of NB-RLP1006 is pH-dependent with E24 values of 8, 38, and 31% at pH 3, 6, and 8, respectively. The type of emulsion formed by NB-RLP1006 (e.g. oil-in-water or water-in-oil) was determined using the drop dilution test. An emulsion was formed by vigorously mixing a 1 mg/mL solution of RLP1006 in deionized water with an equal volume of kerosene for 1 min. A portion (20 μL) of the emulsion was transferred to 0.5 mL of deionized water and 0.5 mL of kerosene and dilution of the emulsion in each liquid was monitored.

[6] = Emulsification activity assay (emulsification index E24, kerosene); format: physicochemical
Protocol: V. paradoxus RKNM-096 was identified as a biosurfactant producer in a screen aimed at identifying bacterial producers of biosurfactants with emulsifying properties. The assay utilized to identify bacterial producers of biosurfactants was the emulsification activity assay. In this assay cultures were grown in 10 mL of liquid medium in 25 mm×150 mm glass tubes at 30° C. with shaking at 200 rpm for 5 days. After 5 days, the cells were removed by centrifugation and 3.5 mL of cell free culture broth was mixed with 3.5 mL of kerosene in a 13 mm×100 mm test tube with a screw cap tube. The tubes were vortexed for two minutes and then allowed to stand overnight at room temperature after which the height of the emulsion (hemuls) and the total height (htotal) of the liquid in the tube were measured. The emulsification index (E24) was calculated using the equation E24=hemuls/htotal×100%.
as §2

[7] = Characteristic curvature (Cc) by HLD-NAC model, electrolyte scan with SDHS/toluene; format: physicochemical; conditions: NB-RLP1006/SDHS mixtures, toluene oil phase, NaCl 0 to 6.0% (w/v)
Protocol: The characteristic curvature (Cc) of NB-RLP1006 was determined using the hydrophilic-lipophilic difference-net average curvature (HLD-NAC) model to calculate the shift in chemical potential when NB-RLP1006 is transferred from the oil to the aqueous phase as a function of salinity by the following general equation: HLD=F(S)−k×EACN+F(A)−∝×ΔT+Cc where F(S) is a function of salinity, k is a coefficient equal to 0.17, EACN (effective alkane carbon number) is the number of carbons in the alkane oil phase, α is a coefficient dependent on the type of surfactant (ionic, ethoxylates, etc), and ΔT is the effect of temperature. Four mixtures of NB-RLP1006 and sodium dihexyl sulfosuccinate (SDHS) were prepared with a total surfactant concentration of 1.8 mg/mL using the following NB-RLP1006/SDHS ratios: 0, 12, 24, and 40 wt % NB-RLP1006. An electrolyte scan was performed for each mixture by varying the NaCl concentration from 0 to 6.0% (w/v). Each mixture was added to an equal volume of toluene, which constituted the oil phase, and shaken vigorously. […] A plot of the NB-RLP1006/SDHS molar ratios versus S* was generated and Cc was calculated from the line of best fit. The Cc value for NB-RLP1006 was determined to be +5.2, a value that reflects the hydrophobic nature of this biosurfactant.

Compound: CCCCCCCC(CC(=O)NC(CO)C(=O)NC(CO)CC(C)C)OC(=O)CC(CCCCCCC)OC(=O)CC(CCCCCCC)OC1OC(C)C(O)C(O)C1O (stereo not drawn) [NB-RLP860]
- aqueous solubility [1]: poor aqueous solubility
- BJ (MIC90) [2]: 32 µg/mL
- IC50 ([2]; error is standard deviation): 16.3 ± 0.3 µg/mL (≈ 18.9 µM)
- HEKa (MIC90) [3]: 128 µg/mL
- IC50 ([3]; error is standard deviation): 15.5 ± 1.6 µg/mL (≈ 18 µM)
- CMC [4]: 0.07 wt %
- CMC ([4]; duplicate): 0.85 mM
- Minimum Surface Tension [4]: 36.2 mN/m

Compound: CCCC(CC(=O)NC(CO)C(=O)NC(CO)CC(C)C)OC(=O)CC(CCC)OC(=O)CC(CCC)OC1OC(C)C(O)C(OC2OC(C)C(O)C(O)C2O)C1O (stereo not drawn) [NB-RLP978]
- CMC [4]: 0.02 wt %
- CMC ([4]; duplicate): 0.20 mM
- Minimum Surface Tension [4]: 35.5 mN/m

Compound: CCCCCCCC(CC(=O)NC(CO)C(=O)NC(CO)CC(C)C)OC(=O)CC(CCCCCCC)OC(=O)CC(CCCCCCC)OC1OC(C)C(O)C(OC2OC(C)C(O)C(O)C2O)C1O (stereo not drawn) [NB-RLP1006]
- type of emulsion formed [5]: oil-in-water (o/w) and o/w
- emulsification index (E24) ([6]; 1 mg/mL in deionized water): 53%
- emulsification index (E24) ([6]; pH 3): 8%
- emulsification index (E24) ([6]; pH 6): 38%
- emulsification index (E24) ([6]; pH 8): 31%
- characteristic curvature (Cc) [7]: +5.2
- BJ (MIC90) [2]: 32 µg/mL
- IC50 ([2]; error is standard deviation): 19.5 ± 2.4 µg/mL (≈ 19.4 µM)
- HEKa (MIC90) [3]: 64 to 128 µg/mL
- IC50 ([3]; error is standard deviation): 15.5 ± 1.7 µg/mL (≈ 15.4 µM)
- CMC [4]: 0.02 wt %
- CMC ([4]; duplicate): 0.20 mM
- Minimum Surface Tension [4]: 35.5 mN/m

Compound: CCCCCCCC(CC(=O)NC(CO)C(=O)NC(CO)CC(C)C)OC(=O)CC(CCCCCCC)OC(=O)CC(CCCCCCC)OC1OC(C)C(O)C(OC2OC(C)C(O)C(OC(C)=O)C2O)C1O (stereo not drawn) [NB-RLP1048B]
- aqueous solubility [1]: poor aqueous solubility
- BJ (MIC90) [2]: 32 µg/mL
- IC50 ([2]; error is standard deviation): 18.7 ± 1.6 µg/mL (≈ 17.8 µM)
- HEKa (MIC90) [3]: 64 to 128 µg/mL
- IC50 ([3]; error is standard deviation): 19.3 ± 4 µg/mL (≈ 18.4 µM)
- CMC [4]: 0.09 wt %
- CMC ([4]; duplicate): 0.85 mM
- Minimum Surface Tension [4]: 36.9 mN/m

Compound: Zinc pyrithione [reference compound]
- BJ (MIC90) [2]: 4 µg/mL
- BJ (IC50) ([2]; error is standard deviation): 2.2 ± 0.3 µg/mL
- HEKa (MIC90) [3]: 1 µg/mL
- HEKa (IC50) ([3]; error is standard deviation): 0.20 ± 0.001 µg/mL
